Active and inactive are the calls of the source.
Columns and labels:
[1] = microbe, parasite or virus in culture; assay type: functional; settings: Mycobacterium tuberculosis
[2] = Vero E6 cell cytotoxicity, dose response, cytotoxicity control for non-replicating M. tuberculosis project, secondary assay (AID 492998); assay type: functional, VeroE6; settings: Vero C1008
cells [3] = assay type: functional
[4] = Luminescent dose response cell-based high throughput screening assay for inhibitors of the Janus kinase 2 mutant JAK2V617F. [Related pubchem assays: 1446 (Primary screen.), 1521 (Confirmation assay.), 1486 (Counter screen.)]; assay type: functional
Estrogen receptor [5] = biological target: T1, Estrogen receptor (Homo sapiens, UniProt P03372); assay: blockers of SRC-3 recruitment to ERα – biochemical, ELISA, streptavidin-HRP readout, orthogonal assay, confirmation (AID 1079)
T1 sequence (P03372 whole entry): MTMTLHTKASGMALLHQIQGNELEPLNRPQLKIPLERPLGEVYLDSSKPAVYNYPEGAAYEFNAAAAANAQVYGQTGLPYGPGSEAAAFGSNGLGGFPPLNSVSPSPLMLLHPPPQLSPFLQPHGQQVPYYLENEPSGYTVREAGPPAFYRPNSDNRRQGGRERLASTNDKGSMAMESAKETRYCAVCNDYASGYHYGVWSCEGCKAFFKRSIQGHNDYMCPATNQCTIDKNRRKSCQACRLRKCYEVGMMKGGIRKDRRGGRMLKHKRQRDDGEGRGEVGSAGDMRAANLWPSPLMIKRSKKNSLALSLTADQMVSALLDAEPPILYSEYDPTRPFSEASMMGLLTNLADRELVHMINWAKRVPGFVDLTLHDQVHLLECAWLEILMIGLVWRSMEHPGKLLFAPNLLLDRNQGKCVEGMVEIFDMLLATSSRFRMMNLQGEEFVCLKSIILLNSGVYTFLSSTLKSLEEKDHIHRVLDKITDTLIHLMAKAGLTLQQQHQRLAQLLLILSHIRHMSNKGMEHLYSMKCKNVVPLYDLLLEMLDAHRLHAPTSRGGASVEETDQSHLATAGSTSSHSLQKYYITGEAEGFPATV

[6] = biological target: Solute carrier family 12 member 2/member 5 (Homo sapiens, UniProt P55011+Q9H2X9); assay: KCC2 and NKCC1 inhibition by rubidium flux, cell-based, NKCC1 counter-screen (AID 1734); assay type: functional, HEK293
Estrogen receptor [7] = biological target: T1, Estrogen receptor; assay: ERα coactivator recruitment enhancers – biochemical, TR-FRET, ERα LBD, dose response (AID 737)
cells [8] = assay: cells
[9] = NIH3T3 cell viability loss – ATP luminescence, mouse fibroblasts, counter-screen, dose response (AID 2010); assay type: functional, cell-based;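 note: cells exposed to compound for about 90 hours before reading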
[10] = Trypanosoma cruzi growth suppression in host cells – NIH3T3 host cells, beta-gal luminescence, confirmation (AID 2044); assay type: functional, cell-based;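 note: intracellular parasites grown in NIH/3T3 mouse fibroblasts as host cells; luminescent beta-galactosidase reporter signal from transgenic T. cruzi replicating inside host cells; inhibitors lower the luminescence signal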
Cytochrome P450 2C19 = Cytochrome P450 2C19 (Homo sapiens, UniProt P33261); assay: Cytochrome panel assay with activity outcomes. Panel member name: p450-cyp2c19 Compounds with AC50 equal or less than 10 uM are considered active; assay type: functional
[11] = biological target: E3 ubiquitin-protein ligase Mdm2 (Homo sapiens, UniProt Q00987); assay: MDM2-luc reporter signal enhancers, multi-concentration potency testing, MDM2 ubiquitin-protein ligase inhibitor program, whole-cell format, luminescence detection, 384-well microplate (AID 1394); assay type: functional;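 note: MDM2 E3 inhibitors raise luminescence so EC50 is for signal enhancement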
Sequence of E3 ubiquitin-protein ligase Mdm2 (Q00987 whole entry): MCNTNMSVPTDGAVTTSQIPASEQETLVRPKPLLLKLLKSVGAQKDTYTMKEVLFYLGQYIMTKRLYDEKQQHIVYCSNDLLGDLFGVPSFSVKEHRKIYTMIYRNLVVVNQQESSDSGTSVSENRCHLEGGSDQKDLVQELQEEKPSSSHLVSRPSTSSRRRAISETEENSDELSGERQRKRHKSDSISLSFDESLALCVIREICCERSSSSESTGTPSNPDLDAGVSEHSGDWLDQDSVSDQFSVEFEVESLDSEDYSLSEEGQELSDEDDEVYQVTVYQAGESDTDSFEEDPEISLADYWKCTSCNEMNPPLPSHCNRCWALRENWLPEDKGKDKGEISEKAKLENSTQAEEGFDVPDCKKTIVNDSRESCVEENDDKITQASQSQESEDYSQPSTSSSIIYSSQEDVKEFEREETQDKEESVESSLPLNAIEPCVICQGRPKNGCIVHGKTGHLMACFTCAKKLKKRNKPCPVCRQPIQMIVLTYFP

Sequence of Cytochrome P450 2C19 (P33261 whole entry): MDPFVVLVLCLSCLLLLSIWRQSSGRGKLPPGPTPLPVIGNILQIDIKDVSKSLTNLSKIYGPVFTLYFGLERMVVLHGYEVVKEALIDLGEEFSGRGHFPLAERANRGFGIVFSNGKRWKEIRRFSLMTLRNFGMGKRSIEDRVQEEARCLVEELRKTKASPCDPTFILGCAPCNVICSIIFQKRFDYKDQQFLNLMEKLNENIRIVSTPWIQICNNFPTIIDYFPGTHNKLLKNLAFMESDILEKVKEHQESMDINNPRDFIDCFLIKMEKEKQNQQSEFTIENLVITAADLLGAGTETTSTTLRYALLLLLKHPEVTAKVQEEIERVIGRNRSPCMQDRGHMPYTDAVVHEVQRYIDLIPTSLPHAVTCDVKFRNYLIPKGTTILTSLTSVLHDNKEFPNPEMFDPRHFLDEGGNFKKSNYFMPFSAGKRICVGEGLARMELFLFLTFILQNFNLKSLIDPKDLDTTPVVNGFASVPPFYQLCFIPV

In the case of O=C(O)c1[nH]c(=O)[nH]c(=O)c1F, the CC50 [1] is reported as > 40 µM (active), the CC50 [2] is reported as > 20 µM (active) and the IC50 (cells [3]) is reported as 5.96 µM (active). For the same molecule, the IC50 [4] was 4.12 µM (active).

In the case of O=C(CCCCCn1c(=S)[nH]c2ccccc2c1=O)N1CCN(c2ncccn2)CC1, the IC50 (Estrogen receptor [5]) is reported as 0.12 µM (not active).

With CCCn1c(N)c(C(=O)CSc2nnc(Cc3ccccc3)o2)c(=O)n(C)c1=O the IC50 [6] was 1.6 µM (active).

For CC(C)CCNC(=O)COc1ccc2c3c(c(=O)oc2c1)CCC3, the EC50 (Estrogen receptor [7]) was 13.3 µM (not active).

For Cc1c(O)ccc2c(CN3CCN(Cc4ccccc4)CC3)cc(=O)oc12, the EC50 (cells [8]) was 0.024 µM (active), the EC50 [9] was > 60 µM (not active) and the EC50 [10] was < 0.1 µM (active).

For CCN1CCN(C(=O)CCc2nc3ccccc3c(=O)[nH]2)CC1, the AC50 (Cytochrome P450 2C19) was “inconclusive” and the EC50 [11] was 12.5 µM (not active).

From ChEMBL document CHEMBL1201862, “PubChem BioAssay data set” (2004)
